The target in data set [1] is Melanocortin receptor 4 (Homo sapiens) (UniProt P32245). The data set is described as follows: Activity at MC4R expressed in HEK293 cells assessed as stimulation of cAMP release at 10 uM relative to alpha-MSH. It is filed as functional, cell-based.
Data set [2] in a line: Drug level in rat brain at 10 mg/kg, po after 4 hrs. The following applies: read-out: Drug uptake. On the set-up: dose 10 mg/kg, route oral. Format: ADME, organism-based.
A short description of data set [3]: AUC in rat at 10 mg/kg, po. On the set-up: dose 10 mg/kg, route oral. The note with it: plasma. Format: ADME, organism-based.
The nature of data set [4]: Oral bioavailability in rat at 10 mg/kg, po. It is filed as ADME, organism-based. The note with it: in vivo.
A short description of data set [5]: Cmax in rat at 2.5 mg/kg, iv or 10 mg/kg, po. Format: ADME, organism-based. The following applies: in vivo.
The nature of data set [6]: Tmax in rat at 2.5 mg/kg, iv or 10 mg/kg, po. It is filed as ADME, organism-based. The following applies: in vivo.
The nature of data set [7]: Drug level in rat brain at 10 mg/kg, po after 1 hr. It is filed as ADME, organism-based. On the set-up: dose 10 mg/kg, route oral. The note with it: read-out: Drug uptake.
The nature of data set [8]: Volume of distribution in rat at 2.5 mg/kg, iv or 10 mg/kg, po. It is filed as ADME, organism-based. The note with it: in vivo.
Data set [9] is described as follows: Ratio of drug level in brain to plasma in rat at 2.5 mg/kg, iv or 10 mg/kg, po after 1 hr. It is filed as ADME, organism-based.
In another data set the test system is Caco-2. Nature of the data set: Permeability across Caco-2 cell membrane. The following applies: human. It is filed as ADME, cell-based. For orientation: Passage across Caco-2 layers is used to estimate intestinal permeability.
Data set [10] can be described thus: Ratio of drug level in brain to plasma in rat at 2.5 mg/kg, iv or 10 mg/kg, po after 4 hrs. It is filed as ADME, organism-based.
The target of the next data set is Cytochrome P450 3A4 (Homo sapiens, UniProt P08684). Nature of the data set: Inhibition of CYP3A4. It is filed as ADME.

pIC50: −log10 of the molar value.

Sequence of Melanocortin receptor 4 (Homo sapiens) (P32245 whole entry): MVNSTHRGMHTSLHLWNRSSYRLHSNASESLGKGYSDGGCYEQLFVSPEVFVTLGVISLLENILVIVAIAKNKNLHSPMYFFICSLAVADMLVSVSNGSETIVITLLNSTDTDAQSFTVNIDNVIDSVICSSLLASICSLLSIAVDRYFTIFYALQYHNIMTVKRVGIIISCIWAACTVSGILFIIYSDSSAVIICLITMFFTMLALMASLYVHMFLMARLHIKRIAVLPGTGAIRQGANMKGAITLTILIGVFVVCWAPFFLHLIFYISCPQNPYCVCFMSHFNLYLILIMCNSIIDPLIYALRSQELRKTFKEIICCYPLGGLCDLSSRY
Sequence of Cytochrome P450 3A4 (P08684 whole entry): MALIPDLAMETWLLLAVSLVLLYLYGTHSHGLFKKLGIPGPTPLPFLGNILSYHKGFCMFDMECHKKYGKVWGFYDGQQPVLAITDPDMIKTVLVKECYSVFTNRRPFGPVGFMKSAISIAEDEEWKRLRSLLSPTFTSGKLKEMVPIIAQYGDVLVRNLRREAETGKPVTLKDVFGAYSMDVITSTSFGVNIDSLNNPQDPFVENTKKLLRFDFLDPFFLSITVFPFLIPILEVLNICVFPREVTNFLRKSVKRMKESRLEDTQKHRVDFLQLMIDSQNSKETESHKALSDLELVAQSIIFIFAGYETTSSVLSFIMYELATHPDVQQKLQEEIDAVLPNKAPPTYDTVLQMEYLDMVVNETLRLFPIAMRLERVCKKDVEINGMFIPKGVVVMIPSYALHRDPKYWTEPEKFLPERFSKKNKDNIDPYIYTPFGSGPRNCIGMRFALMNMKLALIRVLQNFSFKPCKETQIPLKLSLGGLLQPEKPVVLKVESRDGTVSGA

Regarding `Cc1ccc(N2CCN(C(=O)[C@H](C)Cc3ccc(Cl)cc3F)CC2)c([C@@H](N)C(C)C)c1`, the Activity in [1] was determined as 5%.

As to `Cc1ccc(N2CCN(C(=O)[C@H](C)Cc3ccc(Cl)cc3F)CC2)c([C@@H](NC(=O)CCN(C)C)C(C)C)c1`, the concentration at 4 h in [2] is 31 ng/g. Besides, the AUC in data set [3] was determined as 1470 ng·h/mL. Further, the bioavailability in data set [4] is 13%. In data set [5], this molecule registered a Cmax of 134 ng/mL. Moreover, in [6], the time to peak (Tmax) was 4.7 h. In data set [7], the concentration at 1 h is 8 ng/g. The molecule also yielded a Vd in [8] of 4.2 L/kg.

As for `Cc1ccc(N2CCN(C(=O)[C@H](C)Cc3ccc(Cl)cc3C)CC2)c([C@@H](NC(=O)CCN(C)C)C(C)C)c1`, the concentration at 4 h in data set [2] was 42 ng/g. In data set [3], this molecule gave an AUC of 1950 ng·h/mL. Further, in data set [9], the concentration ratio (Kp) at 1 h amounted to 0.1. In addition, the permeability with Caco-2 is given as 1.9 10^-6 cm/s. This molecule also displayed a bioavailability in data set [4] of 5.6%. In addition, in [5], the Cmax turned out to be 208 ng/mL. Besides, in [6], the Tmax was found to be 4 h. In addition, in [7], the concentration at 1 h was determined as 9 ng/g. The Vd in data set [8] is 4.3 L/kg. Further, in data set [10], the Kp at 4 h is 0.3.

For the molecule `Cc1ccc(N2CCN(C(=O)[C@H](C)Cc3ccc(Cl)cc3)CC2)c([C@@H](N)C(C)C)c1`, the permeability in the data set with Caco-2 is recorded as 5 10^-6 cm/s.

In the case of `CNCC(=O)N[C@H](c1cc(C)ccc1N1CCN(C(=O)[C@H](C)Cc2ccc(Cl)cc2F)CC1)C(C)C`, the Activity in data set [1] was 12%. Moreover, in the data set with Caco-2, the permeability is given as 0.8 10^-6 cm/s. The molecule further showed a pIC50 at Cytochrome P450 3A4 of 5.16.

The term AUC denotes the area under the concentration-time curve, a measure of exposure. A higher AUC goes with high exposure. Usually bioavailability stands for the share of a dose that reaches the circulation, judged against a reference dose that is usually intravenous. Higher therefore signals much systemic uptake. In general, Cmax refers to the maximum level reached in the sampled fluid or tissue. For orientation: Tmax means the time from dosing to the highest level. The Kp is tissue or fluid exposure divided by exposure in the circulation. As usually defined, the pIC50 is the negative decadic logarithm of the IC50, by convention in mol/L. A lower pIC50 goes with a large IC50.

(Values after ChEMBL document CHEMBL1137579, “Discovery of 1-[2-[(1S)-(3-dimethylaminopropionyl)amino-2-methylpropyl]-4-methylphenyl]-4-[(2R)-methyl-3-(4-chlorophenyl)-propionyl]piperazine as an orally active antagonist of the melanocortin-4 receptor for the potential treatment of cachexia” (J Med Chem, 2007).)
